How the values were obtained:
human leukemia cells = conditions: cited from earlier work
[1] = tested on: DAOY medulloblastoma cells; assay: DAOY medulloblastoma cells, MTT assay and light microscopy; type: cell-based; conditions: after 24 h treatment; each treatment had holo-Tf (20 μg/well)
Procedure: The compound ART-Phe-Sal was tested on DAOY medulloblastoma cells using the MTT assay. DAOY Medulloblastoma cells (5,000 cells/200 μL) was seeded on a 96 well plate and incubated for 24 h at 37° C. Cell culture medium was removed after 24 h and 150 μL of medium with treatment was added. Each experimental treatment had holo-Tf (20 μg/well). Treatment assay was viewed under light microscope after 24 h.
Treatment medium was removed after 48 h, and 100 μL of cell medium was added. MTT Reagent (10 μL, 12 mM) was added to each well. This solution was incubated at 37° C. for 4 h. Isopropanol (100 μL) was added to each well to lyse the cells, which were then incubated at 4° C. for 30 m. After incubation each well was plunged (3×200 μL) to ensure the cells were lysed. The incubated medium with MTT reagent was then centrifuged at 13,000 RPM in an eppendorph centrifuge for 3 minutes at room temperature. 100 μL of supernatant was read in a plate reader at λ=570 nm. FIG. 13 compares the effect of dihydroartemisinin (DHA) and ART-Phe-Sal on DAOY medulloblastoma cell line. The concentration of holo-Tf was 1.7 μM.

| Molecule | therapeutic index (toxicity towards cancer cells versus normal cells) (human leukemia cells) | cell shrinkage under light microscope [1] |
| --- | --- | --- |
| C[C@@H]1CC[C@H]2[C@@H](C)C(=O)O[C@@H]3O[C@@]4(C)CC[C@@H]1[C@]32OO4 [Artemisinin] | approximately 100 |  |
| holo-Tf: Human holotransferrin (Sigma Chemicals), iron carrying protein added to the cells |  | Moderate cell shrinkage |

Source: patent US7692030B2, “Conjugates of artemisinin-related endoperoxides and hydrazone derivatives for the treatment of cancer” (University of Washington, priority 2006, dated 2010)
